Experimental data from patent US20040058947A1, “Composition for the prevention or treatment of learning disorders in children suffering from attention deficit/hyperactive disorder” (priority 2001, published 2004).

Experiments:
[1] = test system: cortical neurons isolated from mouse foetuses; experiment: Effect on glutamate-induced cortical neuronal toxicity; assay type: cell-based; settings: monosodium glutamate 1 nmol·L^−1; L-carnitine/acetyl L-carnitine 5 nmol·L^−1, huperzine A 10 nmol·L^−1, added half an hour before glutamate; glutamate alone 20%
Protocol: As is known , persistent stimulation of glutamate receptors induces a neurotoxic effect leading to the death of neuronal cells: this is one of the mechanisms regarding as being responsible for the pathogenesis of Alzheimer's disease. The aim of these tests was to observe whether preincubation of cortical neuronal cells with L-carnitine+acetyl L-carnitine carnitine alone or in combination with huperzine A may lead to a reduction of glutamate-induced toxicity and to greater survival of neuronal cells. In these tests, cortical neurons isolated from mouse foetuses were used, according to the method described by Lin [Lin L., J. Nanjing Univ. (Natural Science Edition) 31:514, 1995—Lin L., Acta Pharmacol. Sinica, 17:221, 1996]. After isolating the cells, they were suspended on plates with a density of 6.4×10^8 cells/m^2 surface. To prevent proliferation of non-neuronal cells, […]. […]
The solutions of L-carnitine/acetyl L-carnitine or huperzine A were added to the Locke solution half an hour before monosodium glutamate. […] according to the procedure disclosed by Green (Green L. M., J. Immunol. Methods, 70:257, 1984).

[2] = test system: glutamate-induced spontaneous motility in mice; experiment: Glutamate excitability tests (hypermotility after intracerebral glutamate); assay type: in vivo; settings: treatment one hour prior, huperzine A 0.05 mg/kg, L-carnitine 200 mg/kg + acetyl L-carnitine 50 mg/kg
Excerpt: Excitatory amino acids such as glutamate, if administered by intracerebral injection, produce a series of behavioural effects, the most evident of which is hypermotility.
To evaluate the effect of huperzine A and L-carnitine/acetyl L-carnitine and of a combination of these, mice received intracerebral injections of increasing doses of glutamate according to the method described by Lama (Lama E., Acta Pharmacol. Sinica, 9:252, 1988). The increase in spontaneous motility of these animals placed in a box with transparent walls was then evaluated by means of a photoelectric cell which recorded the number of passes for a period of five minutes. The motility test was conduced both in control animals and in animals treated one hour prior to injection of glutamate with huperzine A and with L-carnitine/acetyl L- carnitine and with a combination of these compounds. The results of these tests (see Table 2) indicate that treatment with huperzine A reduces the increase in motility induced by glutamate in mice, but that the greastest reduction is that obtained by administration of the combination of huperzine A and L-carnitine/acetyl L-carnitine.

For C/C=C1\[C@H]2C=C(C)C[C@]1(N)c1ccc(=O)[nH]c1C2 [huperzine A], the “survival rate of neuronal cells” value [1] was 30%, the “N. passes in 5 min observation” value ([2]; Glutamate 1 ng/mouse intracerebral, glutamate control 241 ± 35) was 226 ± 24 and the “N. passes in 5 min observation” value ([2]; Glutamate 5 ng/mouse intracerebral, glutamate control 364 ± 39) was 296 ± 16.
